Where no end group is shown, it is not given here.
Legend:
Hydrolysis in 5% NaHCO3 = assay type: physicochemical; conditions: one hour
[1] = Hydrolysis to hydrocodone in 1 N HCl; conditions: 1 hour
[2] = Water solubility / feasibility of intravenous administration
[3] = Chemical stability (hydrolysis) of hydrocodone conjugates in water; assay type: physicochemical; conditions: one hour
Protocol: Exemplary conjugates of hydrocodone of the present technology and control test conjugates not of the present technology were tested for chemical stability under conditions similar to what a potential drug abuser may use to “extract” the active portion of the molecule, for example dissolved in water, hydrochloric acid or sodium bicarbonate either at ambient temperature or 100° C.

[4] = Oral PK of hydrocodone conjugates in rats (plasma hydrocodone, hydromorphone, intact conjugate by LC-MS/MS)
Oral PK in dogs = conditions: equivalent to 2 mg/kg freebase hydrocodone
[5] = Intranasal PK of hydrocodone conjugates in rats; conditions: equivalent to 2 mg/kg hydrocodone freebase
[6] = Tamper resistance study (extraction methods, HPLC); assay type: physicochemical
Text: Certain prodrug conjugates of the present technology were exposed to various commonly applied “extraction methods” to test for hydrolysis and/or decomposition of the prodrug.

[7] = Oral dose escalation study in rats; conditions: oral solutions, escalating dosages
[8] = ambient temperature (about 20° C.)
[9] = equivalent to 2 mg/kg hydrocodone freebase
[10] = equivalent to 2 mg/kg freebase hydrocodone

For “Tyr-Tyr-Phe-Phe-Ile-Hydrocodone (YYFFI-hydrocodone) [YYFFI-HC]”, the “%-release in 5% NaHCO3” value (Hydrolysis in 5% NaHCO3; 100° C. oil bath) was 70% and the “%-release in 5% NaHCO3” value (Hydrolysis in 5% NaHCO3; ambient (~20° C.)) was 0%.
For `COc1ccc(C(=O)OC2=CC[C@H]3[C@H]4Cc5ccc(OC)c6c5[C@@]3(CCN4C)C2O6)cc1O` (stereo partly drawn) [3-OH-4-MeO-Bz-HC], the “%-release in 5% NaHCO3” value (Hydrolysis in 5% NaHCO3; 100° C. oil bath) was 36%, the “%-release in 5% NaHCO3” value (Hydrolysis in 5% NaHCO3; ambient (~20° C.)) was 0% and the “%-release in 1 N HCl” value ([1]; 100° C. oil bath) was 35%. For the same molecule, the “%-release in 1 N HCl” value ([1]; ambient (~20° C.)) was 0% and the “solubility in water (intravenous administration at oral equivalent doses)” value (shortened to “solubility in water”) [2] was “hydrophobic”.
With `COc1ccc2c3c1OC1C(OC(=O)c4ccc5c(c4)OCO5)=CC[C@H]4[C@@H](C2)N(C)CC[C@]314` (stereo partly drawn) [Piperonylate-HC] the “solubility in water” value [2] was “hydrophobic”.
For “2-aminobenzoate-hydrocodone [Compound 2-Abz-HC]”, the “amount of conjugate hydrolyzed in water” value ([3]; 100° C. oil bath) was 0%, the “amount of conjugate hydrolyzed in water” value [3, 8] was 0% and the “%-release in 1 N HCl” value ([1]; 100° C. oil bath) was 16%. The “%-release in 1 N HCl” value ([1]; ambient (~20° C.)) was 0%, the “hydrocodone AUC, lower than Hydrocodone.BT” value [4, 9] was “approximately 35%” and the “hydrocodone Cmax, lower than Hydrocodone.BT” value [4, 9] was roughly 60%. For the same molecule, the “hydrocodone Tmax compared with Hydrocodone.BT” value [4, 9] was “approximately four times longer”, the “hydromorphone AUC, lower than Hydrocodone.BT” value [4, 9] was “approximately 25%” and the “hydromorphone Cmax, lower than Hydrocodone.BT” value [4, 9] was roughly 50%.
In the case of `COc1ccc2c3c1OC1C(OC(=O)c4ccccc4)=CCC4C(C2)N(C)CCC314` (stereo not drawn) [Bz-HC, benzhydrocodone], the “AUC for intact Bz-HC as % of the AUC for hydrocodone” value (Oral PK in dogs) is reported as “approximately 10%”, the “maximum plasma concentrations of hydromorphone versus dose” value ([4]; doses above 2.00 mg/kg) is reported as “did not significantly change” and the “exposures (AUC) to hydrocodone and hydromorphone versus dose” value ([4]; doses between 0.25 and 4.00 mg/kg) is reported as “fairly linear”. For the same molecule, the “AUC for intact Bz-HC as % of the AUC for hydrocodone” value [4, 10] was “approximately 10%”, the “AUC for intact Bz-HC as % of the AUC for hydromorphone” value [4, 10] was roughly 3% and the “hydrocodone Cmax compared with Hydrocodone.BT” value [4, 9] was “approximately equal”. The “solubility in water” value [2] was “hydrophobic” and the “water solubility (or solubility in PBS)” value ([2]; 0.30 mg/kg close to the maximum intravenous dose in rats) was “poor”.
For `COc1ccc(C(=O)OC2=CC[C@H]3[C@H]4Cc5ccc(OC)c6c5[C@@]3(CCN4C)C2O6)cc1` (stereo partly drawn) [Compound 4-MeO-Bz-HC], the “amount of conjugate hydrolyzed in water” value ([3]; 100° C. oil bath) was 0%, the “amount of conjugate hydrolyzed in water” value [3, 8] was 0% and the “solubility in water” value [2] was “hydrophobic”.
In the case of `COc1ccc2c3c1OC1C(OC(=O)CCCCC(=O)O)=CC[C@H]4[C@@H](C2)N(C)CC[C@]314` (stereo partly drawn) [Adipate-HC], the “%-release in 5% NaHCO3” value (Hydrolysis in 5% NaHCO3; 100° C. oil bath) is reported as 100%, the “%-release in 5% NaHCO3” value (Hydrolysis in 5% NaHCO3; ambient (~20° C.)) is reported as 3% and the “%-release in 1 N HCl” value ([1]; 100° C. oil bath) is reported as 100%. For the same molecule, the “%-release in 1 N HCl” value ([1]; ambient (~20° C.)) was 13%, the “solubility in water” value [2] was “water soluble” and the “AUC for hydromorphone released from Adipate-HC, higher than Bz-HC (sentence on hydrocodone plasma concentrations, FIG. 3)” value [5] was “approximately 280%”. For the same molecule, the “Cmax for hydromorphone released from Adipate-HC, higher than Bz-HC (sentence on hydrocodone plasma concentrations, FIG. 3)” value [5] was roughly 60%, the “hydromorphone AUC, higher than Bz-HC (FIG. 4)” value [5] was “approximately 750%” and the “hydromorphone Cmax, higher than Bz-HC (FIG. 4)” value [5] was roughly 660%.
For `CC(=O)Oc1ccccc1C(=O)OC1=CCC2C3Cc4ccc(OC(=O)c5ccccc5OC(C)=O)c5c4C2(CCN3C)C1O5` (stereo not drawn) [3,6-di-aspirin-HM, 3,6,-di-aspirin-hydromorphone], the “stability under commonly applied extraction methods” value [6] was “chemically stable”, the “Release of hydromorphone (as %-AUC by HPLC)” value (“Release … (as %-AUC by HPLC)” below) ([6]; 1 N HCl, ambient temperature, 30 min.) was 0% and the “Release … (as %-AUC by HPLC)” value ([6]; 1 N HCl, ambient temperature, 60 min.) was 0%. For the same molecule, the “Release … (as %-AUC by HPLC)” value ([6]; 1 N NaOH, ambient temperature, 30 min.) was 1%, the “Release … (as %-AUC by HPLC)” value ([6]; 1 N NaOH, ambient temperature, 60 min.) was 1% and the “Release … (as %-AUC by HPLC)” value ([6]; 4 N NaOH, ambient temperature, 30 min.) was 1%. The “Release … (as %-AUC by HPLC)” value ([6]; 4 N NaOH, ambient temperature, 60 min.) was 6%, the “Release … (as %-AUC by HPLC)” value ([6]; 5% Acetic acid, ambient temperature, 30 min.) was 0% and the “Release … (as %-AUC by HPLC)” value ([6]; 5% Acetic acid, ambient temperature, 60 min.) was 0%. The “Release … (as %-AUC by HPLC)” value ([6]; Glacial acetic acid, ambient temperature, 30 min.) was 0%, the “Release … (as %-AUC by HPLC)” value ([6]; Glacial acetic acid, ambient temperature, 60 min.) was 0% and the “Release … (as %-AUC by HPLC)” value ([6]; Sat. NaHCO3, ambient temperature, 30 min.) was 0%. For the same molecule, the “Release … (as %-AUC by HPLC)” value ([6]; Sat. NaHCO3, ambient temperature, 60 min.) was 0%, the “Release … (as %-AUC by HPLC)” value ([6]; Water, ambient temperature, 30 min.) was 0% and the “Release … (as %-AUC by HPLC)” value ([6]; Water, ambient temperature, 60 min.) was 0%. For the same molecule, the “exposure (AUC) to hydromorphone at doses above the therapeutic level” value [7] was “reached a plateau”.
For `COc1ccc2c3c1OC1C(OC(=O)COCC(=O)O)=CC[C@H]4[C@@H](C2)N(C)CC[C@]314` (stereo partly drawn) [Diglycolate-HC, reference compound], the “solubility in water” value [2] was “water soluble”.

Reference: US20200038383A1, “IMMEDIATE-RELEASE ABUSE DETERRENT CO[…] MEDICAMENTS FOR TREATING PAIN, ADD, ADHD AND OTHER SYNDROMES OR DISORDERS” (KEMPHARM, INC., priority 2016, published 2020)
